For this assay, the target named is GerA complex (GerAA-GerAB-GerAC) (Bacillus subtilis, UniProt P07869). Kind of assay: membrane depolarisation, DiSC3. In kind it is cell-based. Conditions: 50 mM L-alanine; 30 min after addition; agonist, recognised by GerAB subunit.
Sequence of GerA complex (GerAA-GerAB-GerAC) (P07869 whole entry): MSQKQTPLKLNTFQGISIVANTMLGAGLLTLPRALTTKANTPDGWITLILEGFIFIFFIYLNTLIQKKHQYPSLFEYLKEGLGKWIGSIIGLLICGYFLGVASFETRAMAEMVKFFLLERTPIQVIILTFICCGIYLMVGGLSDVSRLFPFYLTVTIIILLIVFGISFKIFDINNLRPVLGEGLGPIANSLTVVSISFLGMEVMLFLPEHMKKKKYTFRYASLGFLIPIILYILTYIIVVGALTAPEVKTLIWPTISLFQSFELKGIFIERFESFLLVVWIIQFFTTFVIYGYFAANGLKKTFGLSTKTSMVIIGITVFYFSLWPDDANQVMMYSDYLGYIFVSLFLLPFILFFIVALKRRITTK
Sequence of GerA complex (GerAA-GerAB-GerAC) (P07870 18-373, further chain): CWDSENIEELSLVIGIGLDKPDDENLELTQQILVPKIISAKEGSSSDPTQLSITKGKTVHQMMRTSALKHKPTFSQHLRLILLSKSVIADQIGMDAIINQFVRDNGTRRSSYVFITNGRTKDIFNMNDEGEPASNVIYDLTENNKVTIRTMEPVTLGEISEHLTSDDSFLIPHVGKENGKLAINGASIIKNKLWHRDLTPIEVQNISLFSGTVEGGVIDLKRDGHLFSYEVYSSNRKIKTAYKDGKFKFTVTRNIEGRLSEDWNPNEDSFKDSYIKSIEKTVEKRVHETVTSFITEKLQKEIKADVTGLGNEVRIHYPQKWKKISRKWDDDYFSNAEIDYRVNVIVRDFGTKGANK
Sequence of GerA complex (GerAA-GerAB-GerAC) (P07868 whole entry, further chain): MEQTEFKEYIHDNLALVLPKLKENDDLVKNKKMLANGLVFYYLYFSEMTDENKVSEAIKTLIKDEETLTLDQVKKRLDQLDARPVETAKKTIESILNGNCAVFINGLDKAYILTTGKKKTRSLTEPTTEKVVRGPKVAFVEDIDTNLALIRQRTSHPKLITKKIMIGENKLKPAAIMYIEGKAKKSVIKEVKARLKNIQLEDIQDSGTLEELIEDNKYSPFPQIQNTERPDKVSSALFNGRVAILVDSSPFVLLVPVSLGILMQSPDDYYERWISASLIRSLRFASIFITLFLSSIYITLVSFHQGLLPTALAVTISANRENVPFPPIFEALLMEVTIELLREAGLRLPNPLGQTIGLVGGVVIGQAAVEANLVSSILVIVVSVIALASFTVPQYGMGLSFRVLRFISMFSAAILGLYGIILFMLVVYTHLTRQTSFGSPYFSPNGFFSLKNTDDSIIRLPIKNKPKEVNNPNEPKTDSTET

Consider `C[C@H](N)C(=O)O` [L-alanine], for which the “% reduction in DiSC3(5) fluorescence at 50 mM” value stood at 30%.
